tested on: HCT116 colorectal cancer cells; assay: Cisplatin sensitization assay (96 h cell viability MTS); type: cell-based; settings: 96 h MTS, compound plus Cisplatin;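 note: compound concentration needed to lower the Cisplatin-alone IC50 by a set fold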
Experimental: Compounds can be screened for their ability to sensitize HCT116 colorectal cancer cells to Cisplatin using a 96 h cell viability (MTS) assay. […] Compounds and Cisplatin are then both added simultaneously to the cell media in 2-fold serial dilutions from a top final concentration of 10 μM as a full matrix of concentrations in a final cell volume of 200 μl, and the cells are then incubated at 37° C. in 5% CO2. After 96 h, 40 μl of MTS reagent (Promega G358a) is added to each well and the cells are incubated for 1 h at 37° C. in 5% CO2.

Question: Which “Cisplatin Sensitization Assay” value does the source give for `Nc1nn2cc(F)cnc2c1C(=O)Nc1cnccc1-c1ccc(C(=O)N2CCN3CCC2CC3)cc1` [I-C-48, N-(4-(4-(1,4-diazabicyclo[3.2.2]nonane-4-carbonyl)phenyl)pyridin-3-yl)-2-amino-6-fluoropyrazolo[1,5-a]pyrimidine-3-carboxamide] here?
Answer: Its value is “+++ (Compounds with a Cisplatin sensitization value of <0.02 μM are marked with “+++.”)”.

Question: Which “Cisplatin Sensitization Assay” value does the source give for `Nc1nn2cc(F)cnc2c1C(=O)Nc1cnccc1-c1ccc(C(=O)N2CCN(C3COC3)CC2)cc1` [I-C-49, 2-amino-6-fluoro-N-(4-(4-(4-(oxetan-3-yl)piperazine-1-carbonyl)phenyl)pyridin-3-yl)pyrazolo[1,5-a]pyrimidine-3-carboxamide] here?
Answer: The value was “+++ (Compounds with a Cisplatin sensitization value of <0.02 μM are marked with “+++.”)”.

Question: `Nc1nn2cc(F)cnc2c1C(=O)Nc1cnccc1-c1ccc(C(=O)N2CCN(C3COC3)CC2)cc1F` [I-C-51, 2-amino-6-fluoro-N-(4-(2-fluoro-4-(4-(oxetan-3-yl)piperazine-1-carbonyl)phenyl)pyridin-3-yl)pyrazolo[1,5-a]pyrimidine-3-carboxamide] was tested. Which “Cisplatin Sensitization Assay” value did it give?
Answer: The value was “++ (Compounds with a Cisplatin sensitization value >0.02 μM but <0.2 μM are marked with “++.”)”.

Question: `Nc1nn2cc(F)cnc2c1C(=O)Nc1cnccc1-c1ccc(C(=O)N2CCN(C3COC3)CC2)nc1` [I-C-52, 2-amino-6-fluoro-N-(6-(4-(oxetan-3-yl)piperazine-1-carbonyl)-[3,4′-bipyridin]-3′-yl)pyrazolo[1,5-a]pyrimidine-3-carboxamide] was tested. Which “Cisplatin Sensitization Assay” value did it give?
Answer: Its value is “++ (Compounds with a Cisplatin sensitization value >0.02 μM but <0.2 μM are marked with “++.”)”.

Question: With `Nc1nn2cc(F)cnc2c1C(=O)Nc1cnccc1-c1ccc(C(=O)N2CCC(N3CCCC3)CC2)nc1` [I-C-53, 2-amino-6-fluoro-N-(6-(4-(pyrrolidin-1-yl)piperidine-1-carbonyl)-[3,4′-bipyridin]-3′-yl)pyrazolo[1,5-a]pyrimidine-3-carboxamide] as the molecule, how does the “Cisplatin Sensitization Assay” value read?
Answer: The value was “+++ (Compounds with a Cisplatin sensitization value of <0.02 μM are marked with “+++.”)”.

Question: With `Nc1nn2cc(F)cnc2c1C(=O)Nc1cnccc1-c1ccc(C(=O)N2CCC(N3CCC3)CC2)nc1` [I-C-54, 2-amino-N-(6-(4-(azetidin-1-yl)piperidine-1-carbonyl)-[3,4′-bipyridin]-3′-yl)-6-fluoropyrazolo[1,5-a]pyrimidine-3-carboxamide] as the molecule, how does the “Cisplatin Sensitization Assay” value read?
Answer: Its value is “+++ (Compounds with a Cisplatin sensitization value of <0.02 μM are marked with “+++.”)”.

Question: How did the “Cisplatin Sensitization Assay” value turn out when `Cn1ccnc1-c1ccncc1NC(=O)c1c(N)nn2cc(F)cnc12` [I-C-55, 2-amino-6-fluoro-N-(4-(1-methyl-1H-imidazol-2-yl)pyridin-3-yl)pyrazolo[1,5-a]pyrimidine-3-carboxamide] was run?
Answer: Its value is “+ (Compounds with a Cisplatin sensitization value >0.2 μM but <5 μM are marked with “+.”)”.

Question: Which “Cisplatin Sensitization Assay” value does the source give for `Cn1cncc1-c1ccncc1NC(=O)c1c(N)nn2cc(F)cnc12` [I-C-56, 2-amino-6-fluoro-N-(4-(1-methyl-1H-imidazol-5-yl)pyridin-3-yl)pyrazolo[1,5-a]pyrimidine-3-carboxamide] here?
Answer: Its value is “+++ (Compounds with a Cisplatin sensitization value of <0.02 μM are marked with “+++.”)”.

Question: `Cn1nccc1-c1ccncc1NC(=O)c1c(N)nn2cc(F)cnc12` [I-C-57, 2-amino-6-fluoro-N-(4-(1-methyl-1H-pyrazol-5-yl)pyridin-3-yl)pyrazolo[1,5-a]pyrimidine-3-carboxamide] was tested. Which “Cisplatin Sensitization Assay” value did it give?
Answer: The value was “+++ (Compounds with a Cisplatin sensitization value of <0.02 μM are marked with “+++.”)”.

Question: `Cn1c(-c2ccncc2NC(=O)c2c(N)nn3cc(F)cnc23)cccc1=O` [I-C-58, 2-amino-6-fluoro-N-(1-methyl-6-oxo-1,6-dihydro-[2,4′-bipyridin]-3′-yl)pyrazolo[1,5-a]pyrimidine-3-carboxamide] was tested. Which “Cisplatin Sensitization Assay” value did it give?
Answer: Its value is “+++ (Compounds with a Cisplatin sensitization value of <0.02 μM are marked with “+++.”)”.
